Here are results for 25 compounds from patent US20170129903A1, “COMPOUNDS COMPRISING 1,1a,2,5a-TETRAHYDROSPIRO[INDOLE-3,2a-PYRROLE]-2,5a-DIONE SYSTEM AS INHIBITORS P53-MDM2 PROTEIN-PROTEIN INTERACTION” (ADAMED SP. Z O.O., priority 2014, published 2017).

The target in the first test is T1, p53-Mdm2 interaction (N-terminal domain of Mdm2 protein, amino acids 1-111) (Homo sapiens, UniProt Q00987).
T1 construct: N-terminal domain of Mdm2 protein (amino acids 1-111)
T1 sequence (Q00987 1-111): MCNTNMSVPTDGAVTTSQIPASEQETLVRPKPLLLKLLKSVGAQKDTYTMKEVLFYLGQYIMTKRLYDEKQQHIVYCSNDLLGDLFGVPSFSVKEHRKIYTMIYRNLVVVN
In words: Fluorescence polarization (FP) binding assay of p53-Mdm2 interaction. The conditions noted are these: FP assay, 130 nM Mdm2, FAM-labelled p53 peptide; Ki transformed from IC50 using Kenakin equation. On the procedure: The inhibition of p53-Mdm2 interaction was measured using a fluorescence polarization (FP) binding assay. FP measures the rotational movement of molecules in a homogenous suspension. For this assay, N-terminal domain of Mdm2 protein (amino acids 1-111) is combined with a fluorescein-labelled (FAM) peptide derived from p53 trans-activation domain. Upon excitation of the fluorescent ligand with linearly polarized light, […]. If the peptide is bound by Mdm2, rotation will slow down and the perpendicular component will decrease. Disruption of the formation of the peptide-Mdm2 complex due to an inhibitor molecule binding to the p53 binding site of Mdm2 results in faster rotation of the peptide.
Fluorescence polarization experiments were read on Tecan Infinite M1000 reader with the 470 nm excitation and 520 nm emission filters for fluorescein. The fluorescence polarization was measured in black 96-well plates (Corning, CLS3991) in room temperature. Purity of Mdm2 was controlled at >95%. Reaction buffer was optimized by adding 5 mM DTT and 0.1% zwitterionic detergent CHAPS to reduce effect of nonspecific interactions.
The test was performed by combining successive dilution of compounds diluted in dimethyl sulfoxide (DMSO, 5% final concentration) with 130 nM Mdm2 in reaction buffer (PBS, 0.1% CHAPS, 5 mM DTT (dithiothreitol)). After 15 minutes of incubation in room temperature […] FAM-labelled peptide was added. Final reading was performed after 90 minutes of incubation. Dose-dependent binding curves and IC50 values were calculated using GraphPad Prism5 and next transformed to Ki values using Kenakin equation.
(In general: Fluorescence polarisation rises when a labelled molecule tumbles more slowly, as on binding a larger partner.)
With `CC(C)c1[nH]nc2c1C1(C(=O)Nc3cc(Cl)ccc31)N(c1cncc(Cl)c1)C2=O` (centres unmarked) [Compound 83, 6-chloro-5′-(5-chloropyridin-3-yl)-3′-(propan-2-yl)-1,2,5′,6′-tetrahydro-2′H-spiro [indole-3,4′-pyrrolo[3,4-c]pyrazole]-2,6′-dione], the affinity, expressed as Ki, was 152 nM.

For the compound `Cc1ccc(Cl)cc1N1C(=O)C(O)=C(C(=O)C(C)C)C12C(=O)Nc1cc(Cl)ccc12` (centres unmarked) [Compound 8, 6-chloro-1′-(5-chloro-2-methylphenyl)-4′-hydroxy-3′-(iso-propanoyl)-1,1′,2,5′-tetrahydrospiro[indole-3,2′-pyrrole]-2,5′-dione], the inhibition constant Ki (usually a dissociation constant, usually derived from enzyme kinetics or from competition with a known ligand) is 120 nM.

For the compound `O=C1C(O)=C(c2ccccc2)C2(C(=O)Nc3ccccc32)N1c1cccc(Cl)c1` (centres unmarked) [Compound 39, 1′-(3-chlorophenyl)-4′-hydroxy-3′-phenyl-1,1′,2,5′-tetrahydrospiro[indole-3,2′-pyrrole]-2,5′-dione], the Ki was 750 nM.

The compound `O=C(O)CSC1=C(c2ccccc2)C2(C(=O)Nc3cc(Cl)ccc32)N(c2cccc(Cl)c2)C1=O` (centres unmarked) [Compound 51, 2-[6-chloro-1′-(3-chlorophenyl)-2,5′-dioxo-3′-phenyl-1,1′,2,5′-tetrahydrospiro [indole-3,2′-pyrrole]-4′-ylsulfanyl]acetic acid] returned a Ki of 130 nM.

The compound `CC(C)(C)CN1C(=O)C(O)=C(c2cccc(Cl)c2)C12C(=O)Nc1cc(Cl)ccc12` (centres unmarked) [Compound 36, 6-chloro-3′-(3-chlorophenyl)-1′-(2,2-dimethylpropyl)-4′-hydroxy-1,1′,2,5′-tetrahydrospiro[indole-3,2′-pyrrole]-2,5′-dione] displayed a Ki of 295 nM.

Consider `Cc1ccc(Cl)cc1N1C(=O)C(O)=C(C(=O)C2(C)CC2)C12C(=O)Nc1cc(Cl)ccc12` (centres unmarked) [Compound 2, 6-chloro-1′-(5-chloro-2-methylphenyl)-4′-hydroxy-3′-(1-methylcyclopropane-carbonyl)-1,1′,2,5′-tetrahydrospiro[indole-3,2′-pyrrole]-2,5′-dione], for which the Ki came out at 122 nM.

Compound `O=C1C(O)=C(c2cccc(Cl)c2)C2(C(=O)Nc3cc(Cl)ccc32)N1c1ccccc1` (centres unmarked) [Compound 37, 6-chloro-3′-(3-chlorophenyl)-4′-hydroxy-1′-phenyl-1,1′,2,5′-tetrahydrospiro[indole-3,2′-pyrrole]-2,5′-dione] yielded a Ki of 190 nM.

In the case of `O=C1C(O)=C(c2ccccc2)C2(C(=O)Nc3cc(F)ccc32)N1c1cccc(Cl)c1` (centres unmarked) [Compound 42, 1′-(3-chlorophenyl)-6-fluoro-4′-hydroxy-3′-phenyl-1,1′,2,5′-tetrahydrospiro[indole-3,2′-pyrrole]-2,5′-dione], the affinity corresponds to a Ki of 90 nM.

Regarding `CC(C)C(=O)C1=C(O)C(=O)N(c2cc(Cl)ccc2O)C12C(=O)Nc1cc(Cl)ccc12` (centres unmarked) [Compound 9, 6-chloro-1′-(5-chloro-2-hydroxyphenyl)-4′-hydroxy-3′-(iso-propanoyl)-1,1′,2,5′-tetrahydrospiro[indole-3,2′-pyrrole]-2,5′-dione], the Ki was 268 nM.

Turning to `CC(C)(C)SC1=C(O)C(=O)N(c2cccc(Cl)c2)C12C(=O)Nc1cc(Cl)ccc12` (centres unmarked) [Compound 58, 3′-(tert-butylsulfanyl)-6-chloro-1′-(3-chlorophenyl)-4′-hydroxy-1,1′,2,5′-tetrahydrospiro[indole-3,2′-pyrrole]-2,5′-dione], the Ki was 82 nM.

In the case of `O=C1C(O)=C(Sc2ccc(Cl)cc2)C2(C(=O)Nc3cc(Cl)ccc32)N1c1cccc(Cl)c1` (centres unmarked) [Compound 54, 6-chloro-1′-(3-chlorophenyl)-3′-[(4-chlorophenyl)sulfanyl]-4′-hydroxy-1,1′,2,5′-tetrahydrospiro[indole-3,2′-pyrrole]-2,5′-dione], the inhibition constant Ki turned out to be 123 nM.

`CC1(C(=O)C2=C(O)C(=O)N(c3cccc(Cl)c3)C23C(=O)Nc2cc(Cl)ccc23)CC1` (centres unmarked) [Compound 5, 6-chloro-1′-(3-chlorophenyl)-4′-hydroxy-3′-(1-methylcyclopropanecarbonyl)-1,1′,2,5′-tetrahydrospiro[indole-3,2′-pyrrole]-2,5′-dione] yielded a Ki of 194 nM.

Regarding `COc1ccccc1-n1nc(C(C)C)c2c1C(=O)N(c1cc(Cl)ccc1C)C21C(=O)Nc2cc(Cl)ccc21` (centres unmarked) [Compound 32, 6-chloro-5′-(5-chloro-2-methylphenyl)-1′-(2-methoxyphenyl)-3′-(propan-2-yl)-1,2,5′,6′-tetrahydro-1′H-spiro[indole-3,4′-pyrrolo[3,4-c]pyrazole]-2,6′-dione], the affinity, expressed as Ki, was 1390 nM.

`O=C1C(O)=C(Sc2ccc(Cl)cc2)[C@]2(C(=O)Nc3cc(Cl)ccc32)N1c1cccc(Cl)c1` [Compound 55, (3S)-6-chloro-1′-(3-chlorophenyl)-3′-[(4-chlorophenyl)sulfanyl]-4′-hydroxy-1,1′,2,5′-tetrahydrospiro[indole-3,2′-pyrrole]-2,5′-dione] came in with a Ki of 1910 nM. The Ki values of the last two compounds are within 1.5-fold of each other.

`COc1ccccc1-n1nc2c(c1C(C)C)C1(C(=O)Nc3cc(Cl)ccc31)N(c1cc(Cl)c(=O)n(C)c1)C2=O` (centres unmarked) [Compound 63, 6-chloro-5′-(5-chloro-1-methyl-6-oxo-1,6-dihydropyridin-3-yl)-2′-(2-methoxy-phenyl)-3′-(propan-2-yl)-1,2,5′,6′-tetrahydro-2′H-spiro[indole-3,4′-pyrrolo [3,4-c]pyrazole]-2,6′-dione] came in with a Ki of 2.4 nM.

`COc1ccc(Cl)cc1N1C(=O)C(O)=C(C(=O)C(C)C)C12C(=O)Nc1cc(Cl)ccc12` (centres unmarked) [Compound 10, 6-chloro-1′-(5-chloro-2-methoxyphenyl)-4′-hydroxy-3′-(iso-propanoyl)-1,1′,2,5′-tetrahydrospiro[indole-3,2′-pyrrole]-2,5′-dione] registered a Ki of 610 nM. Against the preceding compound, the Ki is about 250-fold higher.

Compound `O=C(O)CNC1=C(c2ccccc2)C2(C(=O)Nc3cc(Cl)ccc32)N(c2cccc(Cl)c2)C1=O` (centres unmarked) [Compound 49, 2-{[6-chloro-1′-(3-chlorophenyl)-2,5′-dioxo-3′-phenyl-1,1′,2,5′-tetrahydrospiro [indole-3,2′-pyrrole]-4′-yl]amino}acetic acid] came in with a Ki of 38 nM.

As to `CC(C)(C)C(=O)C1=C(O)C(=O)N(c2cccc(Cl)c2)C12C(=O)Nc1cc(Cl)ccc12` (centres unmarked) [Compound 6, 6-chloro-1′-(3-chlorophenyl)-3′-(2,2-tert-butanoyl)-4′-hydroxy-1,1′,2,5′-tetrahydrospiro[indole-3,2′-pyrrole]-2,5′-dione], affinity was put at a Ki of 102 nM.

`COc1ccc(C(N)=O)cc1-n1nc2c(c1C(C)C)C1(C(=O)Nc3cc(Cl)ccc31)N(c1cc(Cl)ccc1O)C2=O` (centres unmarked) [Compound 75, 3-[6-chloro-5′-(5-chloro-2-hydroxy-phenyl)-2,6′-dioxo-3′-(propan-2-yl)-1,2,5′,6′-tetrahydro-2′H-spiro[indole-3,4′-pyrrolo[3,4-c]pyrazole]-2′-yl]-4-methoxybenzamide] registered a Ki of 3.6 nM.

In turn, `CC(C)c1[nH]nc2c1C1(C(=O)Nc3cc(Cl)ccc31)N(c1cc(Cl)ccn1)C2=O` (centres unmarked) [Compound 82, 6-chloro-5′-(4-chloropyridin-2-yl)-3′-(propan-2-yl)-1,2,5′,6′-tetrahydro-2′H-spiro [indole-3,4′-pyrrolo[3,4-c]pyrazole]-2,6′-dione] showed an inhibition constant Ki of 425 nM.

For `COc1ccccc1-n1cc2c(c1C(C)C)C1(C(=O)Nc3cc(Cl)ccc31)N(c1cccc(Cl)c1)C2=O` (centres unmarked) [Compound 89, 6-chloro-2′-(3-chlorophenyl)-5′-(2-methoxyphenyl)-6′-(propan-2-yl)-1,2,3′,5′-tetrahydro-2′H-spiro[indole-3,1′-pyrrolo [3,4-c]pyrrole]-2,3′-dione], the Ki came to 5.3 nM.

With `COc1cccc(OC)c1-n1nc2c(c1C(C)C)C1(C(=O)Nc3cc(Cl)ccc31)N(c1cc(Cl)ccc1C)C2=O` (centres unmarked) [Compound 70, 6-chloro-5′-(5-chloro-2-methylphenyl)-2′-(2,6-dimethoxyphenyl)-3′-(propan-2-yl)-1,2,5′,6′-tetrahydro-2′H-spiro[indole-3,4′-pyrrolo[3,4-c]pyrazole]-2,6′-dione], affinity was put at a Ki of 120 nM. This Ki lies about 23-fold higher than the previous one.

`O=C1C(O)=C(Sc2ccc(Cl)cc2)[C@@]2(C(=O)Nc3cc(Cl)ccc32)N1c1cccc(Cl)c1` [Compound 56, (3R)-6-chloro-1′-(3-chlorophenyl)-3′[(4-chlorophenyl)sulfanyl]-4′-hydroxy-1,1′,2,5′-tetrahydrospiro[indole-3,2′-pyrrole]-2,5′-dione] gave a Ki of 100 nM.

As for `CCOC(=O)/C=C/C(=O)Nc1cccc(C(=O)C2=C(O)C(=O)N(c3cccc(Cl)c3)C23C(=O)Nc2cc(Cl)ccc23)c1` (centres unmarked) [Compound 17, ethyl (2E)-3-[(3-{[6-chloro-1′-(3-chloro-phenyl)-4′-hydroxy-2,5′-dioxo-1,1′,2,5′-tetrahydrospiro[indole-3,2′-pyrrole]-3′-yl]carbonyl}phenyl)carbamoyl]prop-2-enoate], the affinity corresponds to a Ki of 57 nM.

Take `CC(C)OCC(C)(C)C(=O)C1=C(O)C(=O)N(c2cccc(Cl)c2)C12C(=O)Nc1cc(Cl)ccc12` (centres unmarked) [Compound 13, 6-chloro-1′-(3-chlorophenyl)-3′-[2,2-dimethyl-3-(propan-2-yloxy)propanoyl]-4′-hydroxy-1,1′,2,5′-tetrahydrospiro[indole-3,2′-pyrrole]-2,5′-dione]: the inhibitory constant (Ki) is 196 nM. This Ki lies about 3.4-fold higher than the previous one.

Staying with this test, now noted: G=S.
Consider `O=C1C(O)=C(Sc2ccc(Cl)cc2)[C@]2(C(=O)Nc3cc(Cl)ccc32)N1c1cccc(Cl)c1` [Compound 55, (3S)-6-chloro-1′-(3-chlorophenyl)-3′-[(4-chlorophenyl)sulfanyl]-4′-hydroxy-1,1′,2,5′-tetrahydrospiro[indole-3,2′-pyrrole]-2,5′-dione], for which the “times less potent than Compound 56 (enantiomer)” value is on record as “about 19 times”.
